Results from ChEMBL document CHEMBL3044836, “Synthesis, antimicrobial and cytotoxic activities of novel 4-trifluoromethyl-(1,2,3)-thiadiazolo-5-carboxylic acid hydrazide Schiffs bases” (Med Chem Res, 2013).
In brackets after ≈: the same amount, converted by molar mass.

Tests used:
[1] = test system: Candida albicans; assay: Antifungal activity against Candida albicans MTCC 227 assessed as growth inhibition at 150 ug/ml after 48 hr by agar cup diffusion method; type: functional; settings: MTCC 227, 48 h, read-out: DIZ
[2] = test system: MDA-MB-231; assay: Cytotoxicity against Homo sapiens (human) MDA-MB-231 cells assessed as cell viability at 10 uM after 48 hr by MTT assay relative to control; type: functional; settings: MDA-MB-231, 48 h, read-out: Activity
[3] = test system: Aspergillus niger; assay: Antifungal activity against Aspergillus niger MTCC 1344 assessed as growth inhibition at 150 ug/ml after 48 hr by agar cup diffusion method; type: functional; settings: MTCC 1344, 48 h, read-out: DIZ
[4] = test system: Escherichia coli; assay: Antibacterial activity against Escherichia coli MTCC 443 assessed as growth inhibition by broth dilution method; type: functional; settings: read-out: MIC
[5] = test system: Staphylococcus aureus; assay: Antibacterial activity against Staphylococcus aureus MTCC 96 assessed as growth inhibition by broth dilution method; type: functional
[6] = test system: Pseudomonas aeruginosa; assay: Antibacterial activity against Pseudomonas aeruginosa MTCC 741 assessed as growth inhibition by broth dilution method; type: functional; settings: read-out: MIC
[7] = test system: MCF7; assay: Cytotoxicity against Homo sapiens (human) MCF7 cells assessed as cell viability at 10 uM after 48 hr by MTT assay relative to control; type: functional; settings: MCF7, 48 h, read-out: Activity
[8] = test system: Staphylococcus epidermidis; assay: Antibacterial activity against Staphylococcus epidermidis MTCC 435 assessed as growth inhibition by broth dilution method; type: functional; settings: read-out: MIC
[9] = test system: Saccharomyces cerevisiae; assay: Antifungal activity against Saccharomyces cerevisiae MTCC 36 assessed as growth inhibition at 150 ug/ml after 48 hr by agar cup diffusion method; type: functional; settings: MTCC 36, 48 h, read-out: DIZ
[10] = test system: Candida albicans; assay: Antifungal activity against Candida albicans MTCC 227 assessed as growth inhibition at 100 ug/ml after 48 hr by agar cup diffusion method; type: functional; settings: MTCC 227, 48 h, read-out: DIZ
[11] = test system: MDA-MB-231; assay: Cytotoxicity against Homo sapiens (human) MDA-MB-231 cells assessed as cell viability after 48 hr by MTT assay; type: functional, cell-based; settings: MDA-MB-231, 48 h
[12] = test system: Klebsiella pneumoniae; assay: Antibacterial activity against Klebsiella pneumoniae assessed as growth inhibition by broth dilution method; type: functional
[13] = test system: MCF7; assay: Cytotoxicity against Homo sapiens (human) MCF7 cells assessed as cell viability after 48 hr by MTT assay; type: functional, cell-based; settings: MCF7, 48 h
[14] = test system: MDA-MB-231; assay: Cytotoxicity against Homo sapiens (human) MDA-MB-231 cells assessed as cell viability at 1 uM after 48 hr by MTT assay relative to control; type: functional; settings: MDA-MB-231, 48 h, read-out: Activity
[15] = test system: Diutina rugosa; assay: Antifungal activity against Candida rugosa NCIM 3462 assessed as growth inhibition at 100 ug/ml after 48 hr by agar cup diffusion method; type: functional; settings: NCIM 3462, 48 h, read-out: DIZ
[16] = test system: Aspergillus niger; assay: Antifungal activity against Aspergillus niger MTCC 1344 assessed as growth inhibition at 100 ug/ml after 48 hr by agar cup diffusion method; type: functional; settings: MTCC 1344, 48 h, read-out: DIZ
[17] = test system: Diutina rugosa; assay: Antifungal activity against Candida rugosa NCIM 3462 assessed as growth inhibition at 150 ug/ml after 48 hr by agar cup diffusion method; type: functional; settings: NCIM 3462, 48 h, read-out: DIZ
[18] = test system: Saccharomyces cerevisiae; assay: Antifungal activity against Saccharomyces cerevisiae MTCC 36 assessed as growth inhibition at 100 ug/ml after 48 hr by agar cup diffusion method; type: functional; settings: MTCC 36, 48 h, read-out: DIZ
[19] = test system: Bacillus subtilis; assay: Antibacterial activity against Bacillus subtilis MTCC 441 assessed as growth inhibition by broth dilution method; type: functional; settings: read-out: MIC
[20] = test system: Diutina rugosa; assay: Antifungal activity against Candida rugosa NCIM 3462 assessed as growth inhibition at 50 ug/ml after 48 hr by agar cup diffusion method; type: functional; settings: NCIM 3462, 48 h, read-out: DIZ
[21] = test system: Aspergillus niger; assay: Antifungal activity against Aspergillus niger MTCC 1344 assessed as growth inhibition at 50 ug/ml after 48 hr by agar cup diffusion method; type: functional; settings: MTCC 1344, 48 h, read-out: DIZ
[22] = test system: Candida albicans; assay: Antifungal activity against Candida albicans MTCC 227 assessed as growth inhibition at 50 ug/ml after 48 hr by agar cup diffusion method; type: functional; settings: MTCC 227, 48 h, read-out: DIZ
[23] = test system: Saccharomyces cerevisiae; assay: Antifungal activity against Saccharomyces cerevisiae MTCC 36 assessed as growth inhibition at 50 ug/ml after 48 hr by agar cup diffusion method; type: functional; settings: MTCC 36, 48 h, read-out: DIZ
[24] = test system: MCF7; assay: Cytotoxicity against Homo sapiens (human) MCF7 cells assessed as cell viability at 5 uM after 48 hr by MTT assay relative to control; type: functional; settings: MCF7, 48 h, read-out: Activity
[25] = test system: MDA-MB-231; assay: Cytotoxicity against Homo sapiens (human) MDA-MB-231 cells assessed as cell viability at 5 uM after 48 hr by MTT assay relative to control; type: functional; settings: MDA-MB-231, 48 h, read-out: Activity

SMILES | zone of inhibition at 150 µg/mL [1] | viability at 10 µM [2] | zone of inhibition at 150 µg/mL [3] | MIC [4] | MIC [6] | viability at 10 µM [7] | MIC [8] | zone of inhibition at 150 µg/mL [9] | zone of inhibition at 100 µg/mL [10] | MIC ([12]; read-out: MIC) | zone of inhibition at 100 µg/mL [15] | zone of inhibition at 100 µg/mL [16] | zone of inhibition at 150 µg/mL [17] | zone of inhibition at 100 µg/mL [18] | MIC [19] | MIC [5] | also measured
C/C(=N\NC(=O)c1snnc1C(F)(F)F)c1ccccn1 | 0 mm | 25.4% | 0 mm | 150 µg/mL (≈ 476 µM) | 150 µg/mL (≈ 476 µM) | 63.6% | 150 µg/mL (≈ 476 µM) | 0 mm | 0 mm | 150 µg/mL (≈ 476 µM) | 0 mm | 0 mm | 0 mm | 0 mm | 150 µg/mL (≈ 476 µM) | – | MIC ([5]; read-out: MIC): 150 µg/mL (≈ 476 µM); IC50 [11]: 2.74 µg/mL (≈ 8.69 µM); IC50 [13]: 6.01 µg/mL (≈ 19.1 µM); viability at 1 µM [14]: 41.7%
O=C(N/N=C/c1ccccc1)c1snnc1C(F)(F)F | 12 mm | 102% | 0 mm | 150 µg/mL (≈ 500 µM) | 150 µg/mL (≈ 500 µM) | 102% | 150 µg/mL (≈ 500 µM) | 0 mm | 10 mm | – | 0 mm | 0 mm | 6 mm | 0 mm | 150 µg/mL (≈ 500 µM) | > 150 µg/mL | MIC [12]: > 150 µg/mL
O=C(N/N=C/c1ccc(F)cc1)c1snnc1C(F)(F)F | 0 mm | 102% | 0 mm | 150 µg/mL (≈ 471 µM) | 150 µg/mL (≈ 471 µM) | 99.5% | 150 µg/mL (≈ 471 µM) | 0 mm | 0 mm | 150 µg/mL (≈ 471 µM) | 0 mm | 0 mm | 0 mm | 0 mm | 150 µg/mL (≈ 471 µM) | > 150 µg/mL | –
C[C@@H]1[C@H](O)[C@@H](C)/C=C/C=C/C=C/C=C/C=C/C=C/C=C/[C@H](O[C@@H]2O[C@H](C)[C@@H](O)[C@H](N)[C@@H]2O)C[C@@H]2O[C@](O)(C[C@@H](O)C[C@@H](O)[C@H](O)CC[C@@H](O)C[C@@H](O)CC(=O)O[C@H]1C)C[C@H](O)[C@H]2C(=O)O [AMPHOTERICIN B] | – | – | – | – | – | – | – | – | – | – | – | – | – | – | – | – | zone of inhibition at 50 µg/mL [20]: 21 mm; zone of inhibition at 50 µg/mL [21]: 25 mm; zone of inhibition at 50 µg/mL [22]: 23.5 mm; zone of inhibition at 50 µg/mL [23]: 22 mm
COc1cccc2c1C(=O)c1c(O)c3c(c(O)c1C2=O)C[C@@](O)(C(=O)CO)C[C@@H]3O[C@H]1C[C@H](N)[C@H](O)[C@H](C)O1 [DOXORUBICIN] | – | – | – | – | – | – | – | – | – | – | – | – | – | – | – | – | viability at 5 µM [24]: 43.1%; viability at 5 µM [25]: 22.9%
